Experimental data published in patent US9402925B2, “Probes and methods of imaging a bacterial infection” (The Board of Trustees of the Leland Stanford Junior …, priority 2013, dated 2016).
Entries after “also recorded” stand apart in the source; their conditions may differ. Like-named read-outs stand apart in the source and are kept apart here. Blank lines part the entries; values can stand above or below the compound they belong to.

Legend:
[1] = In vivo stability of 1-[18F]fluoromaltose
[2] = test system: mammalian cell line (EL4); experiment: In vitro uptake assay in mammalian cell line EL4; assay type: cell-based; settings: 60 minutes post incubation with tracer
Experimental: (§1) A strain of E-.Coli (ATCC33456) and a mammalian cell line (EL4) were exposed to 1-[^18F]-fluoromaltose or [^18F]-6-fluoromaltose. All bacteria and cells were then washed in 1×PBS, lysed and radioactivity of each well was determined by gamma counter for ^18F samples. All results were done in triplicate and are expressed in counts per minute (CPM), standard errors were determined and t tests performed. The uptake in E. Coli could also be blocked by co-incubation with 1 mM of cold maltose or 1 mM of 1-fluoromaltose.
(§2) To evaluate the ability of bacteria and cells to uptake [^18F]-6-fluoromaltose (7) and 1-[^18F]-fluoromaltose (11), a strain of E. Coli and a mammalian cell line (EL4) were exposed to 7 and 11. […] The uptake in E. Coli could also be blocked by co-incubation with 1 mM of cold maltose (98% blocking, p<0.0003), the natural substrate of the transporter. Likewise, ^3H-maltose uptake in E. Coli was blocked both with 1 mM maltose and 1-fluoromaltose (FIG. 2.4).

E-.Coli (ATCC33456) [3] = experiment: In vitro uptake assay in E. coli; assay type: cell-based, Escherichia coli; settings: radioactivity by gamma counter, CPM, FIG. 2.3
Experimental: as §1, §2

[4] = PBS, human and mouse serum at 37° C.
Experimental: Serum (human or mouse) was centrifuged at about 4° C., maximum speed for about 10 min. About 330 μL of supernatant was transferred to an Eppendorf vial containing 20 μL of formulated radiolabelled 6-[^18F]fluoromaltose (50-100 μCi minimum). For control, same volume of radiolabelled compound in 330 μl PBS was used. After vortexing the radiolabelled mixtures, 70 μL aliquots transferred to Eppendorf tubes and incubated at about 37° C. At predetermine time points (e.g., 0, 5, 15, 30, 60 min) 140 μL of ice-cold methanol were added to corresponding samples to stop metabolism. After vortexing and centrifuging samples (10 min max speed), the supernatants were transferred to HPLC vials for HPLC analysis.
The percentage of intact 6-[^18F]fluoromaltose in PBS, human and mouse serum at 37° C. was determined by HPLC.

Escherichia coli = experiment: Competition assay: blocking of 3H-maltose uptake by E. coli; assay type: cell-based; settings: co-incubation, 1 mM; 3H-labeled maltose uptake for 10 mins; FIG. 2.4
Experimental: Coli and a mammalian cell line (EL4) were exposed to [^18F] 7. […] 7 by E. […] The uptake in E. Coli could also be blocked by co-incubation with 1 mM of cold maltose (98% blocking, p<0.0003), the natural substrate of the transporter. […] Here we allowed bacteria to take up ^3H-labeled maltose for 10 mins.

E-.Coli (ATCC33456) [5] = experiment: Competition assay: blocking of 18F-fluoromaltose uptake in E. coli by co-incubation; assay type: cell-based, Escherichia coli; settings: co-incubation with 1 mM
Experimental: as §1, §2

uptake of [18F]fluoride ion by the bones ([1]; after de-fluorination): very high
SMILES: OC[C@H]1O[C@H](O[C@H]2[C@H](O)[C@@H](O)C([18F])O[C@@H]2CO)[C@H](O)[C@@H](O)[C@@H]1O (stereo partly drawn) [1-[^18F]-fluoromaltose, 4-O-(α-D-glucopyranosyl)-1-deoxy-1-[^18F]-fluoro-D-glucopyranoside]
stability in vivo (de-fluorination) [1]: not stable in vivo and very fast de-fluorinated

percentage intact 6-[18F]fluoromaltose ([4]; 1 h): ~96%
percentage intact 6-[18F]fluoromaltose ([4]; 2 h): ~65%
SMILES: OC[C@H]1O[C@H](O[C@H]2[C@H](O)[C@@H](O)C(O)O[C@@H]2C[18F])[C@H](O)[C@@H](O)[C@@H]1O (stereo partly drawn) [6-[^18F]-fluoromaltose, 4-O-(α-D-glucopyranosyl)-6-deoxy-6-[^18F]-fluoro-D-glucopyranoside]
uptake by mammalian cell line (EL4) [2]: minimal
uptake by E. Coli (E-.Coli (ATCC33456) [3]): take up
uptake by E. Coli (E-.Coli (ATCC33456) [3]; listed as [^18F]-6-fluoromaltose): time dependent

SMILES: OC[C@H]1O[C@H](O[C@H]2[C@H](O)[C@@H](O)C(F)O[C@@H]2CO)[C@H](O)[C@@H](O)[C@@H]1O (stereo partly drawn) [1-fluoromaltose]
blocking of 3H-maltose uptake in E. Coli (Escherichia coli): completely blocked; also recorded: effectively compete
blocking of 18F-fluoromaltose uptake in E. Coli (E-.Coli (ATCC33456) [5]): blocked

SMILES: OC[C@H]1O[C@H](O[C@H]2[C@H](O)[C@@H](O)C(O)O[C@@H]2CO)[C@H](O)[C@@H](O)[C@@H]1O (mixture of isomers) [maltose]
blocking of 3H-maltose uptake in E. Coli (Escherichia coli): completely blocked; also recorded: effectively compete
blocking of 18F-fluoromaltose uptake in E. Coli (E-.Coli (ATCC33456) [5]): completely blocked
blocking of [18F]-6-fluoromaltose uptake in E. Coli (E-.Coli (ATCC33456) [5]; p<0.0003): 98%
